The values that follow are results of earlier work, collected in patent publication US20050032876A1, “Pharmaceutical compositions comprising sumatriptan and metoclopramide, and methods of use thereof” (priority 2003, published 2005).

For the data set the following is noted: rapidly pre-systemically metabolized; very short half-life of the order of only about 2 hours.

As for `CNS(=O)(=O)Cc1ccc2[nH]cc(CCN(C)C)c2c1` [Sumatriptan], the half-life result is listed as “about 2 hours”.
